Experimental data published in publication PMC8512631, “Structural Basis for PPARs Activation by The Dual PPARα/γ Agonist Sanguinarine: A Unique Mode of Ligand Recognition” (Molecules, 2021).
No end group written: not given here. *: point of attachment. Biotin = O=C1N[C@H]2[C@H](CS[C@H]2CCCCC(=O)*)N1

Columns and labels:
[1] = target: T1, PPARδ (Homo sapiens, UniProt Q03181, R248A); experiment: PPRE luciferase reporter in […] cells, […]; type: cell-based
T1 construct: gene PPARD; full-length
T1 sequence (Q03181 1-441 R248A): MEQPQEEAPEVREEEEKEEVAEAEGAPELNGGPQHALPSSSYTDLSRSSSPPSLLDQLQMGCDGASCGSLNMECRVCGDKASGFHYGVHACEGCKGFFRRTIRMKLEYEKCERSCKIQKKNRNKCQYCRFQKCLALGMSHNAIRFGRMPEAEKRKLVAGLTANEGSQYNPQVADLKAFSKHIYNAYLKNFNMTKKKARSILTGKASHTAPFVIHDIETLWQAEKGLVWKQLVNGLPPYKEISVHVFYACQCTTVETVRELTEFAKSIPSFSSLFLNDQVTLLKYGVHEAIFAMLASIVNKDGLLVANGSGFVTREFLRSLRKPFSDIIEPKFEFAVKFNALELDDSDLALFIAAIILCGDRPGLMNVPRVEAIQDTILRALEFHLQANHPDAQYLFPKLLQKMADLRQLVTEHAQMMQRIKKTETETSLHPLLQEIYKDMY

[2] = target: T2, PPARδ (Homo sapiens, UniProt Q03181, H244A); experiment: PPRE luciferase reporter in […] cells, […]; type: cell-based
T2 construct: gene PPARD; full-length
T2 sequence (Q03181 1-441 H244A): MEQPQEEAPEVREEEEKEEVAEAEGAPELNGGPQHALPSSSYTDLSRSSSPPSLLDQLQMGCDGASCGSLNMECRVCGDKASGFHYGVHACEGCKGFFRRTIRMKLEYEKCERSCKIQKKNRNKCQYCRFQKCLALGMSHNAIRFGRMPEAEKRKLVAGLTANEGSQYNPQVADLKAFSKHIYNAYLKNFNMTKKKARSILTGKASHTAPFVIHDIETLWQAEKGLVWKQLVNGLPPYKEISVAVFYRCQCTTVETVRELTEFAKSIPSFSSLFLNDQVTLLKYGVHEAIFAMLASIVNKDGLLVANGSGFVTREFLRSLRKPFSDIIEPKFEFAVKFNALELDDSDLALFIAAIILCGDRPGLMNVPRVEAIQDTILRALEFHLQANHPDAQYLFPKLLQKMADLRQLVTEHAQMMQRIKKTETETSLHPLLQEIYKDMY

[3] = target: T3, PPARα (Homo sapiens, UniProt Q07869); experiment: thermal shift assay of LBD with SRC1 peptide; GAL4 reporter at […]; type: binding
T3 construct: gene PPARA; LBD

[4] = target: T4, human PPARα ligand-binding domain (residues 196-468) (human, UniProt Q07869-1 196-468); experiment: AlphaScreen or HTRF; approximately 20–40 nM PPAR LBDs on nickel chelate acceptor beads, 20 nM biotinylated co-factor peptides on streptavidin donor beads; 50 mM MOPS, 50 mM NaF, 0.05 mM CHAPS, 0.1 mg/mL BSA, pH 7.4; in response to 1 μM sanguinarine; conditions: both partners purified
T4 construct: Expressed from pET24a; The methods describe only this PPARα-LBD construct; also called PPARα–LBD; source: E. coli BL21 (DE3), purified (Ni HiTrap, gel filtration Superdex 200); not shown: His6, N-terminal, kept
T4 sequence (looked up): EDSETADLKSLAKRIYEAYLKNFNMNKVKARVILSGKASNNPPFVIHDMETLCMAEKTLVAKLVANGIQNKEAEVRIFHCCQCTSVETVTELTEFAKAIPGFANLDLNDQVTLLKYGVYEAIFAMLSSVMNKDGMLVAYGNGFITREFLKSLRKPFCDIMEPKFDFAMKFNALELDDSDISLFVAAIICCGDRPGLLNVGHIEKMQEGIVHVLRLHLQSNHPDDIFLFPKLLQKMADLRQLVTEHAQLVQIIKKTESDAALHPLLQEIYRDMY

T3 sequence (Q15788 2-1441 partner, one chain of several): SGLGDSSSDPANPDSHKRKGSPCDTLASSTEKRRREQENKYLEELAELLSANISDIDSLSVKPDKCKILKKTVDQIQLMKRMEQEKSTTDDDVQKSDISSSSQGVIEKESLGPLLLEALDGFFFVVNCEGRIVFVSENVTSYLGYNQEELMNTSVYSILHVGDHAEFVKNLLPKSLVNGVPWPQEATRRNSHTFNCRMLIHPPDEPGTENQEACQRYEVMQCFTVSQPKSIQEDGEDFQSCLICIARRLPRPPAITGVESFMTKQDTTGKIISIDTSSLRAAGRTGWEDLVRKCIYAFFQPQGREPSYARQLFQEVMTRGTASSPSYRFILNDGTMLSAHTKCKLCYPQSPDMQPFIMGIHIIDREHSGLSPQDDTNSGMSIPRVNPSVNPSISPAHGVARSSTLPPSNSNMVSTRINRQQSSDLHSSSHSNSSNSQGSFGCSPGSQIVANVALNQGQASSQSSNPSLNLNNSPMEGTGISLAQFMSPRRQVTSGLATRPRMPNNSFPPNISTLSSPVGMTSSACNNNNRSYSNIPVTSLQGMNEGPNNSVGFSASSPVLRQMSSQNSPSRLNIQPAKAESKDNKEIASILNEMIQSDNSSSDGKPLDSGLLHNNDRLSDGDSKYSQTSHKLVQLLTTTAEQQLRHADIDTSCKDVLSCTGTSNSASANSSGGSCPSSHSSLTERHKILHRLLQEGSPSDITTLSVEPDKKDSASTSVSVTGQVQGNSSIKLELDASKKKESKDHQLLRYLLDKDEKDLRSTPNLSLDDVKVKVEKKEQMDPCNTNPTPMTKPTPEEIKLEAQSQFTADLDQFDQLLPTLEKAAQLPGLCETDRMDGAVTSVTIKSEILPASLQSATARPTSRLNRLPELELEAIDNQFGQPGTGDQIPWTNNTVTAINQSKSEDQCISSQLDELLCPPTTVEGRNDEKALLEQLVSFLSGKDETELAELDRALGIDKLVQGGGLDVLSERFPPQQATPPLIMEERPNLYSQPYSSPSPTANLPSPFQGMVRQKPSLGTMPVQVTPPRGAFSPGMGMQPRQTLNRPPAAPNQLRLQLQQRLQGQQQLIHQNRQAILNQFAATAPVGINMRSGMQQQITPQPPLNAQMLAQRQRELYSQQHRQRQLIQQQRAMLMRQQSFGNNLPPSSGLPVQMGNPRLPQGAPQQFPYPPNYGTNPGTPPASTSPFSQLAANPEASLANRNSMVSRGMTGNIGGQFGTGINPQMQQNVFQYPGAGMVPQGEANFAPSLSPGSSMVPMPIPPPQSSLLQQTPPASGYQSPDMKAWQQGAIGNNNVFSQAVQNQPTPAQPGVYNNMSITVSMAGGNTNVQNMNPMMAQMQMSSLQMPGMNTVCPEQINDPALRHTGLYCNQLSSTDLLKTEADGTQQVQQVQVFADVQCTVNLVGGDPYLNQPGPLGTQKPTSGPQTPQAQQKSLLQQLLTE

Molecule: C[n+]1cc2c3c(ccc2c2ccc4cc5c(cc4c21)OCO5)OCO3 [sanguinarine]
- PPRE luciferase reporter in 293T cells, 1 μM [1]: sanguinarine activated the transcriptional activity of PPARδ–R248A mutation, in contrast to wild-type PPARδ
- PPRE luciferase reporter in 293T cells, 1 μM [2]: the H244A mutation enables PPARδ to respond to sanguinarine treatment

Molecule: Cc1nc(-c2ccc(C(F)(F)F)cc2)sc1C(=O)NCc1ccc(OC(C)(C)C(=O)O)cc1 [GW590735]
- thermal shift assay of LBD with SRC1 peptide; GAL4 reporter at 1 μM [3]: thermal shift assay showed that SRC1 increased the thermal stability of sanguinarine–PPARα, compared with GW735–PPARα

Molecule: Biotin-SPSSHSSLTERHKILHRLLQEGSP [biotinylated SRC1-2 co-activator LXXLL motif peptide]
- binding result [4]: binds

Molecule: Biotin-QEPVSPKKKENALLRYLLDKDDTKD [biotinylated SRC2-3 co-activator LXXLL motif peptide]
- binding result [4]: binds

Molecule: Biotin-PDAASKHKQLSELLRGGSG (the parent protein is in doubt) [biotinylated SRC3-3 co-activator LXXLL motif peptide]
- binding result [4]: binds
